Article PMC9819389, “Antiandrogenic and Estrogenic Activity Evaluation of Oxygenated and Nitrated Polycyclic Aromatic Hydrocarbons Using Chemically Activated Luciferase Expression Assays” (International Journal of Environmental Research and Public …, 2022)
pIC50: −log10 of the molar value. Read-outs that look alike come from different tables or passages of the source.

Legend:
human AR [1] = molecular target: T1, human AR (Homo sapiens, UniProt P10275); assay: AR-CALUX assay, antiandrogenic (AR antagonistic) activity, U2OS-luc cells; type: cell-based; parameters: host or cells: human U2OS-luc (osteoblastic osteosarcoma) cells; details: for IC25 / REPmol (IC25): present study; for IC25: 24 h exposure with 100 pM DHT (EC50 level); for REPmol (IC25): molar relative potency to flutamide, IC25-based; for pIC50: read-out: IC50; for inhibition of AR-mediated luciferase activity: coexposure to DHT at 10 nM (100 × EC50); for mode of AR inhibition: from coexposure to 10 nM DHT
T1 sequence (P10275 1-920): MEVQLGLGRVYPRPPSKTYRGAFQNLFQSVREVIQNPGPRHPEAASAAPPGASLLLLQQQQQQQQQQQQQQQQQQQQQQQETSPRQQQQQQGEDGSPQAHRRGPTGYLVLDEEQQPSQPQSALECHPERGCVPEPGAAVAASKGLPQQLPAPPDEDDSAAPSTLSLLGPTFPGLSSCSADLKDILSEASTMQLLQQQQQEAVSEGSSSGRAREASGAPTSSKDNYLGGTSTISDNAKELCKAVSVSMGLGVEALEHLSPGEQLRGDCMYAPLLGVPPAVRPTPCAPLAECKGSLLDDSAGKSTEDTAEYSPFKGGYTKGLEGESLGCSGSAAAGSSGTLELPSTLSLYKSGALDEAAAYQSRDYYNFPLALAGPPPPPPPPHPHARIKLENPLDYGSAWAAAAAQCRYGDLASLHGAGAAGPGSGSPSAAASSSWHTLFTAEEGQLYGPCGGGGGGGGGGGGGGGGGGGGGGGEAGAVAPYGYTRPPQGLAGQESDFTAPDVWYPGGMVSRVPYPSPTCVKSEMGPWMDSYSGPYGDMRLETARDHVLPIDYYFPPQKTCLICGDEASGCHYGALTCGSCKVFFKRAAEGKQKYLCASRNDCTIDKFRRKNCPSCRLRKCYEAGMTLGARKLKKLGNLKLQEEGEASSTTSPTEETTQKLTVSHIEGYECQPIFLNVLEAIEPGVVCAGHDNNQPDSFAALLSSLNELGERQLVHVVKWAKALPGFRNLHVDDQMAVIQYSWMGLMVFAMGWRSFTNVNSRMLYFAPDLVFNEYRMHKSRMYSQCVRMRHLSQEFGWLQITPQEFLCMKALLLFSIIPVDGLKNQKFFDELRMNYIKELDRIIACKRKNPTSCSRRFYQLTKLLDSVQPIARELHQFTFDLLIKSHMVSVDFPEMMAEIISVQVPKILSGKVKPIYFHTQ
Protocol: (§1) The AR- and ER-CALUX assays for the polycyclic aromatic compounds were evaluated according to previously described methods, which used human U2OS-luc cells developed by BioDetection Systems b.v. (Amsterdam, The Netherlands). The cells are transfected stably with human AR and ER, respectively, and a luciferase reporter gene under their respective steroid receptor response elements. […] They were incubated at 37 °C in a humidified atmosphere containing 5% carbon dioxide. […] The medium was then removed, and the cells were lysed. A solution of luciferin was then added, and the luminescence intensity was measured with an ARVO™ X3 luminometer from PerkinElmer (Waltham, MA, USA). A sigmoid dose–response curve for a chemical was fitted to the Hill equation given by Equation (1) using SigmaPlot 11.0 from Systat Software Inc. (San Jose, CA, USA). y = min + (max − min)/(1 + (a1/x)^a^2)(1) where, y and x are the measured luciferase induction level and compound concentration, respectively. […] The REP values in mol base were obtained by dividing the ICs or ECs of the standard by the ICs or ECs of target compound, respectively.
(§2) All measurements were conducted in triplicate wells. They were repeated twice and trice in the AR- and ER-CALUX assays, respectively, for each concentration in dose–response curve. […] Cell viability was confirmed using 3-(4,5-dimethylthiazol-2-yl)-2,5-diphenyltetrazolium bromide (MTT) assay. If the cell viability was <80% in the positive control, the corresponding exposure dose was considered cytotoxic and excluded from the calculation.

human ER [2] = molecular target: T2, human ER (Homo sapiens, UniProt P03372); assay: ER-CALUX assay, estrogenic activity, U2OS-luc cells; type: cell-based; parameters: host or cells: human U2OS-luc (osteoblastic osteosarcoma) cells; details: for EC50 / REPmol (EC50): present study; for EC50: 24 h exposure; for REPmol (EC50): molar relative potency to E2, EC50-based
T2 sequence (P03372 1-595): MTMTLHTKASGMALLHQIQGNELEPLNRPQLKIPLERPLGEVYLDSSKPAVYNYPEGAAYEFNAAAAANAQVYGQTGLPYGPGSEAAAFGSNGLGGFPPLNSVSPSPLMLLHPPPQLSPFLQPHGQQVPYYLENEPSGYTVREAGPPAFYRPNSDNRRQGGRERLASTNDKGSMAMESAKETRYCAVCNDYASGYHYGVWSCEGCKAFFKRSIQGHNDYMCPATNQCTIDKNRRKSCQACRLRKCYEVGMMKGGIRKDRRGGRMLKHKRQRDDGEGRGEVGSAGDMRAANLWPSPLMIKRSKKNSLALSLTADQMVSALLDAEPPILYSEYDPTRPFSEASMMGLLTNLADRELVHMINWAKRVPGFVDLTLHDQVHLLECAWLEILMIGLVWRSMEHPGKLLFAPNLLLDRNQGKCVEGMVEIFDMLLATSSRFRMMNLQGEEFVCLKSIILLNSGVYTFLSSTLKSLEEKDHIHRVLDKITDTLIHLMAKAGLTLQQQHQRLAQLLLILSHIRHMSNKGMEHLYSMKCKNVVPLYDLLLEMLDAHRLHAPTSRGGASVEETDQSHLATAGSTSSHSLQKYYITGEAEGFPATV

human AR [3] = molecular target: T1, human AR; parameters: method as in Otsuki et al. [38]; key: +, positive; details: previous study; ref Otsuki et al. [38]; cited from earlier work
thyroid receptor (TR) α = test system: thyroid receptor (TR) α; parameters: method as in PMID 31071665; details: TRα activation; cited from earlier work
U2OS-luc cells = assay: MTT cell viability (cytotoxicity) assay; details: cell viability <80% considered cytotoxic
Protocol: as §2

human AR [4] = molecular target: T1, human AR; assay: AR-CALUX assay, androgenic (agonistic) activity; type: cell-based; parameters: host or cells: human U2OS-luc (osteoblastic osteosarcoma) cells; details: data not shown
Protocol: as §1

human ER [5] = molecular target: T2, human ER; parameters: method as in Machala et al. [36]; details: previous study; relative to E2; ref Machala et al. [36]; cited from earlier work
AR [6] = test system: AR; parameters: method as in Okamura et al. [22]; key: +, positive; details: previous study; ref Okamura et al. [22]; cited from earlier work
AR [7] = details: previous study, relative to flutamide, cited from earlier work
ER [8] = test system: ER; parameters: method as in Pieterse et al. [30]; details: previous study; relative to E2; ref Pieterse et al. [30]; cited from earlier work
ER [9] = details: previous study; relative to E2; ref Šimečková et al. [44]; cited from earlier work
ER [10] = test system: ER; parameters: method as in Boonen et al. [33]; details: previous study; relative to E2; ref Boonen et al. [33]; cited from earlier work

Question: What does the source list for `O=[N+]([O-])c1ccc2ccc3c([N+](=O)[O-])ccc4ccc1c2c43` [1,6-DNPy, 1,6-dinitropyrene]?
Answer: inhibition at 0.1 µM (human AR [1]; at 0.1 μM (100 nM), maximum soluble concentration, read-out: inhibition of AR activation): > 20%; EC50 (human ER [2]): U (key: U: < 10% response of 1 nM E2; nd: not detected); REPmol (EC50) (human ER [2]): U (key: U: < 10% response of 1 nM E2; nd: not detected); antiandrogenic activity, Yeast (human AR [3]): +

Question: For `O=[N+]([O-])c1ccc2ccc3cccc4ccc1c2c34` [1-NPy, 1-nitropyrene], which IC25 (human AR [1]) is on record?
Answer: 94 nM

Question: And the “REPmol (IC25)” value (human AR [1])?
Answer: 1.4

Question: And the pIC50 (human AR [1])?
Answer: 6.66

Question: What about the “activation (level of the response to 1 nM E2)” value (human ER [2]; at 10 μM) of the same compound?
Answer: 14% activation at 10 μM

Question: And the “antiandrogenic activity, Yeast” value (human AR [3])?
Answer: +

Question: With `O=C1c2ccccc2-c2ccc([N+](=O)[O-])c3cccc1c23` [3-NBAO, 3-nitro-7H-benz[de]anthracen-7-one] as the compound, how does the “inhibition of AR-mediated luciferase activity” value (human AR [1]; compound at 30 nM) read?
Answer: 29%

Question: And the “inhibition of AR-mediated luciferase activity” value (human AR [1]; compound at 300 nM)?
Answer: 60%

Question: What about the “mode of AR inhibition” value (human AR [1]) of the same compound?
Answer: noncompetitive

Question: What about the IC25 (human AR [1]) of the same compound?
Answer: 5.1 nM

Question: And the “REPmol (IC25)” value (human AR [1])?
Answer: 23

Question: And the pIC50 (human AR [1])?
Answer: 7.74

Question: What about the “REP50 to triiodothyronine (T3)” value (thyroid receptor (TR) α) of the same compound?
Answer: 0.11

Question: And the “concentration at which cytotoxicity was confirmed” value (U2OS-luc cells)?
Answer: 1000 nM

Question: What about the “antiandrogenic activity, Yeast” value (human AR [3]) of the same compound?
Answer: +

Question: For `O=[N+]([O-])c1ccc2c3c(cccc13)-c1ccccc1-2` [3-NFA, 3-nitrofluoranthene], which “concentration above which inhibition of AR-mediated luciferase activity is attenuated (U-shaped curve)” value (human AR [1]) is on record?
Answer: > 300 nM

Question: And the “attenuation of antiandrogenic activity” value (human AR [1]; at high concentrations compared to at 100 nM)?
Answer: approximately 40%

Question: What about the “inhibition of AR-mediated luciferase activity” value (human AR [1]; compound at 100 nM) of the same compound?
Answer: 26%

Question: What about the “inhibition of AR-mediated luciferase activity” value (human AR [1]; compound at 10 μM) of the same compound?
Answer: 82%

Question: And the “mode of AR inhibition” value (human AR [1])?
Answer: noncompetitive

Question: And the IC25 (human AR [1])?
Answer: 5.3 nM

Question: What about the “REPmol (IC25)” value (human AR [1]) of the same compound?
Answer: 32

Question: What about the pIC50 (human AR [1]) of the same compound?
Answer: 7.85

Question: And the “concentration above which AR-mediated luciferase activity increases (U-shaped curve)” value (human AR [1]; table entry)?
Answer: increase at > 0.3 μM

Question: And the EC50 (human ER [2])?
Answer: U (< 10% response of 1 nM E2)

Question: And the “REPmol (EC50)” value (human ER [2])?
Answer: U (< 10% response of 1 nM E2)

Question: And the “concentration at which weak androgenic activity was observed” value (human AR [4])?
Answer: ≥ 1 µM

Question: And the “maximum androgenic induction, relative to the EC50 level of DHT” value (human AR [4])?
Answer: < 16%

Question: What about the Emax (human AR [4]; read-out: maximum androgenic induction, level of maximum response of DHT exposure (10 nM)) of the same compound?
Answer: < 8%

Question: And the “antiandrogenic activity, Yeast” value (human AR [3])?
Answer: +

Question: For `O=C1c2ccccc2C(=O)c2c1ccc1ccccc21` [BAQ, 7,12-benz[a]anthracenequinone], which IC25 (human AR [1]) is on record?
Answer: 2500 nM

Question: What about the “REPmol (IC25)” value (human AR [1]) of the same compound?
Answer: 0.056

Question: And the pIC50 (human AR [1])?
Answer: 5.19

Question: What about the “REPmol, MVLN” value (human ER [5]) of the same compound?
Answer: 1.4 × 10^−6

Question: For `c1ccc2cc3c(ccc4ccccc43)cc2c1` [B[a]A, benz[a]anthracene], which “antiandrogenic activity, PC3” value (AR [6]) is on record?
Answer: +

Question: And the “REPmol, MVLN” value (human ER [5])?
Answer: 7.9 × 10^−7

Question: What about the “REPmol, U2OS” value (AR [7]; ref Alvarez-Muñoz et al. [28]) of the same compound?
Answer: 1.3

Question: And the “REPmol, U2OS” value (AR [7]; ref Marin-Kuan et al. [29])?
Answer: 0.4

Question: And the “REPmol, U2OS” value (ER [8])?
Answer: <2 × 10^−9

Question: And the “REPmol, T47D” value (ER [9])?
Answer: 1.6 × 10^−6

Question: Which results are given for `c1ccc2c(c1)cc1ccc3cccc4ccc2c1c34` [B[a]P, benzo[a]pyrene]?
Answer: antiandrogenic activity, PC3 (AR [6]): +; REPmol, VM7 (ER [10]): 5.3 × 10^−6; REPmol, U2OS (AR [7]; ref Marin-Kuan et al. [29]): 0.4; REPmol, U2OS (AR [7]; ref Pieterse et al. [30]): 0.1; REPmol, U2OS (ER [8]): 2 × 10^−6; REPmol, T47D (ER [9]): 3.1 × 10^−6

Question: For `C[C@]12CC[C@@H]3c4ccc(O)cc4CC[C@H]3[C@@H]1CC[C@@H]2O` [E2, 17β-estradiol, reference compound], which “REPmol, VM7” value (ER [10]) is on record?
Answer: 1

Question: And the “REPmol, U2OS” value (ER [8])?
Answer: 1

Question: And the “REPmol, T47D” value (ER [9])?
Answer: 1

Question: What does the source list for `O=C1C(=O)c2ccccc2-c2ccccc21` [PhQ, phenanthrenequinone]?
Answer: IC25 (human AR [1]): 180 nM; REPmol (IC25) (human AR [1]): 0.63; pIC50 (human AR [1]): 6.41; concentration at which cytotoxicity was confirmed (U2OS-luc cells): 1000 nM

Question: With `c1cc2ccc3cccc4ccc(c1)c2c34` [Py, pyrene] as the compound, how does the “antiandrogenic activity, PC3” value (AR [6]) read?
Answer: +

Question: What about the “REPmol, U2OS” value (AR [7]; ref Alvarez-Muñoz et al. [28]) of the same compound?
Answer: 0.41

Question: And the “REPmol, U2OS” value (AR [7]; ref Pieterse et al. [30])?
Answer: 0.03

Question: What about the “REPmol, T47D” value (ER [9]) of the same compound?
Answer: 5.3 × 10^−7
